Data taken from patent US20070244111A1, “Pyrazolopyrimidines” (priority 2003, published 2007).
Where two headings read alike, the source gives them in different places.

Assay: log P determination by HPLC (EEC Directive 79/831 Annex V. A8)
Type: physicochemical
Conditions: HPLC gradient method
Description: The log P values were determined in accordance with EEC Directive 79/831 Annex V. A8 by HPLC (gradient method, acetonitrile/0.1% aqueous phosphoric acid).

[1] = gradient of acetonitrile/0.1% aqueous phosphoric acid, acetonitrile/0.1% aqueous phosphoric acid (pH 2.3), read-out: HPLC: log P

Row | chromatographic logP [1] | Compound | also measured
1 | 5.31 | C#Cc1cnn2c(N3CCC(C)CC3)c(-c3ccc(F)cc3Cl)c(Cl)nc12 [Example 9] | –
2 | 7.21 | CC(C)/C=C/c1cnn2c(N3CCC(C)CC3)c(-c3ccc(F)cc3Cl)c(Cl)nc12 [Example 10] | –

Second part, the compound before the results:

Row | Compound | chromatographic logP [1] | also measured
3 | N#Cc1cnn2c(N3CCOCC3)c(-c3ccc(F)cc3Cl)c(Cl)nc12 [Example 141] | 3.33 | –
4 | N#Cc1cnn2c(Cl)c(-c3ccc(F)cc3Cl)c(Cl)nc12 [Example 145, 3-cyano-5,7-dichloro-6-(2-chloro-4-fluorophenyl)pyrazolo[1 ,5-a]pyrimidine] | 3.48 | –
5 | CC1CCN(c2c(-c3ccc(F)cc3Cl)c(Cl)nc3c(C=O)cnn23)CC1 [Example 142, 3-formyl-5-chloro-6-(2-chloro-4-fluorophenyl)-7-(4-methylpiperidino)pyrazolo[1,5-a]pyrimidine] | – | chromatographic logP (gradient of acetonitrile/0.1% aqueous phosphoric acid, pH 2.3, heading: HPLC: log P): 4.53
6 | CC(Nc1c(-c2ccccc2Cl)c(Cl)nc2c(/C(Cl)=C/C=O)cnn12)C(C)(C)C (centres unmarked) [Example 29] | – | chromatographic logP (acetonitrile/0.1% aqueous phosphoric acid (pH 2.3), read-out: HPLC: log P): 5.98
7 | O=Cc1cnn2c(N3CCOCC3)c(-c3ccc(F)cc3Cl)c(Cl)nc12 [Example 143] | 2.94 | –
8 | C=Cc1cnn2c(N3CCC(C)CC3)c(-c3ccc(F)cc3Cl)c(Cl)nc12 [Example 1, 3-vinyl-5-chloro-6-(2-chloro-4-fluorophenyl)-7-(4-methylpiperidino)pyrazolo[1 ,5a]pyrimidine] | 6.07 | –
